Biological target: human GLP-1R (Homo sapiens, UniProt P43220)
Assay: GLP-1R Cell Assay 1: cAMP Hunter CHO-K1 GLP1R Gs cell line, HitHunter cAMP assay
Type: cell-based
Settings: cAMP Hunter CHO-K1 GLP1R Gs cells, percent activity normalized to Exendin-4
Procedure: GLP-1R mediated agonist activity was determined using the cAMP Hunter CHO-K1 GLP1R Gs cell line (DiscoverX, cat# 95-0062C2), a stable CHO-K1 derived cell lines overexpressing naturally Gs coupled wild-type human GLP-1R (accession number: NM_002062.3). GLP-1R agonism in this cell line was detected by measuring cellular cAMP levels using the HitHunter cAMP assay kit (cat# 90-0075SM2), a homogenous, gain-of-signal competitive immune assay based on Enzyme Fragment Complementation (EFC) technology. In this system cellular cAMP competes with exogenous labeled cAMP (ED-cAMP) for binding to an anti-cAMP antibody. […] The luminescent signal is directly proportional to the amount of cellular cAMP.
For compound testing, cells were seeded in a total volume of 20 μL in white walled, 384-well microplates and incubated at 37° C. prior to compound testing. Prior to compound addition, cell culture media was removed by aspiration and replaced with 15 pt reagent buffer (2:1 HBSS/10 mM HEPES: cAMP XS+Ab reagent). Compounds were dissolved in DSMO and serially diluted (3-fold) prior to final dilution to 4X in assay buffer. Samples (5 μL) were added to cells and incubated at 37° C. for […] prior to 1 hour incubation with 20 pt cAMP XS+ED/CL lysis reagent and 3 hour incubation with 20 μL cAMP XS+EA reagent at room temperature. Microplates were read on a PerkinElmer Envision instrument. Compound activity was analyzed using CBIS data analysis suite (ChemInnovation). Percent activity was calculated based on duplicate assay runs and normalized to the positive control Exendin-4, a GLP-1R peptide agonist, using the following formula: […]
The effective compound concentration resulting in 50% response (EC50) was determined by non-linear regression analysis of dose-response curves.

Sequence of human GLP-1R (P43220 24-463): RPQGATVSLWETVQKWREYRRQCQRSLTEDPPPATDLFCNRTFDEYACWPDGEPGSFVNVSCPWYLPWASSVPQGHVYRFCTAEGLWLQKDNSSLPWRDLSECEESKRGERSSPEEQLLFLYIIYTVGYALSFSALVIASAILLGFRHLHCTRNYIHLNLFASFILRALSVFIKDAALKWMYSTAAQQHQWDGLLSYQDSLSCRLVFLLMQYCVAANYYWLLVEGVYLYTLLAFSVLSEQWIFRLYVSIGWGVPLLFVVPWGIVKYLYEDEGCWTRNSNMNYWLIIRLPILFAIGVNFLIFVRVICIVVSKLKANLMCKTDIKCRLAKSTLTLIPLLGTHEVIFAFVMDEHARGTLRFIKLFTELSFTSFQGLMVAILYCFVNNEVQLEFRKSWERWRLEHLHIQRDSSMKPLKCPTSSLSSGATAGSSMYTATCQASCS

Row | EC50 (Table 2) [nM] | SMILES | EC50 (Table 3) [nM]
1 | 1.43 | N#Cc1cc(F)c2c(c1)CCN(c1cccc(N3CCN(Cc4nc5ccc(C(=O)O)cc5n4C[C@@H]4CCO4)CC3)n1)C2 [Compound 73, (S)-2-((4-(6-(6-cyano-8-fluoro-3,4-dihydroisoquinolin-2(1H)-yl)pyridin-2-yl)piperazin-1-yl)methyl)-1-(oxetan-2-ylmethyl)-1H-benzo[d]imidazole-6-carboxylic acid] | –
2 | – | CCn1ccnc1Cn1c(CN2CC[C@@]3(c4cccc(N5CCc6cc(C#N)cc(F)c6C5)n4)C[C@H]3C2)nc2ccc(C(=O)O)cc21 [Compound 163-P1, 2-(((1R,6S)-6-(6-(6-cyano-8-flluoro-3,4-dihydroisoquinolin-2(1H)-yl)pyridin-2-yl)-3-azabicyclo[4.1.0]heptan-3-yl)methyl)-1-((1-ethyl-1H-imidazol-2-yl)methyl)-1H-benzo[d]imidazole-6-carboxylic acid] | 0.266
3 | 82.1 | C[C@H]1COC[C@@H](N2CCC(c3cccc(OCc4ccc(C#N)cc4F)n3)CC2)c2nc3ccc(C(=O)O)cc3n21 (single isomer, unassigned) [Compound 8-P2] | –
4 | 9.24 | N#Cc1cnc(COc2cccc(N3CCN(Cc4nc5ccc(C(=O)O)cc5n4C[C@@H]4CCO4)CC3)n2)nc1 [Compound 16, (S)-2-((4-(6-((5-cyanopyrimidin-2-yl)methoxy)pyridin-2-yl)piperazin-1-yl)methyl)-1-(oxetan-2-ylmethyl)-1H-benzo[d]imidazole-6-carboxylic acid] | –
5 | 8 | C[C@H](Oc1cccc(N2CCN(Cc3nc4ccc(C(=O)O)cc4n3C[C@@H]3CCO3)CC2)n1)c1nc2ccccc2s1 [Compound 115, 2-((4-(6-((S)-1-(benzo[d]thiazol-2-yl)ethoxy)pyridin-2-yl)piperazin-1-yl)methyl)-1-(((S)-oxetan-2-yl)methyl)-1H-benzo[d]imidazole-6-carboxylic acid] | –
6 | > 500 | O=C(O)c1ccc2nc(CN3CCN(c4ccc5ncn(Cc6ccccc6)c5n4)CC3)n(C[C@@H]3CCO3)c2c1 [Compound 28, (S)-2-((4-(3-benzyl-3H-imidazo[4,5-b]pyridin-5-yl)piperazin-1-yl)methyl)-1-(oxetan-2-ylmethyl)-1H-benzo[d]imidazole-6-carboxylic acid] | –
7 | 0.373 | O=C(O)c1ccc2nc(CN3CC[C@]4(c5cccc(OCc6ccc(Cl)cc6Cl)n5)C[C@@H]4C3)n(C[C@@H]3CCO3)c2c1 (single isomer, unassigned) [Compound 126-P2] | –
8 | 2070 | O=C(O)c1ccc2nc(CN3CCC(n4ccc(OCCc5ccccc5)n4)CC3)n(C[C@@H]3CCO3)c2c1 [Compound 99] | –
9 | 0.0514 | CCn1cncc1Cn1c(CN2CCC(c3cccc(N4CCc5cc(C#N)cc(F)c5C4)n3)CC2)nc2ccc(C(=O)O)cc21 [Compound 137, 2-((4-(6-(6-cyano-8-fluoro-3,4-dihydroisoquinolin-2(1H)-yl)pyridin-2-yl)piperidin-1-yl)methyl)-1-((1-ethyl-1H-imidazol-5-yl)methyl)-1H-benzo[d]imidazole-6-carboxylic acid] | –
10 | 2.65 | O=C(O)c1ccc2nc(CN3CCC(c4cccc(OCc5nccs5)n4)CC3)n(C[C@@H]3CCO3)c2c1 [Compound 139, (S)-1-(oxetan-2-ylmethyl)-2-((4-(6-(thiazol-2-ylmethoxy)pyridin-2-yl)piperidin-1-yl)methyl)-1H-benzo[d]imidazole-6-carboxylic acid] | –
11 | 0.86 | N#Cc1ccc(COc2cccc(N3CCN(Cc4nc5ccc(C(=O)O)cc5n4C[C@@H]4CCO4)CC3)n2)nc1 [Compound 62, (S)-2-((4-(6-((5-cyanopyridin-2-yl)methoxy)pyridin-2-yl)piperazin-1-yl)methyl)-1-(oxetan-2-ylmethyl)-1H-benzo[d]imidazole-6-carboxylic acid] | –
12 | 1.09 | O=C(O)c1ccc2nc(CN3CCN(c4cccc(N5CCc6cc(Cl)cc(F)c6C5)n4)CC3)n(C[C@@H]3CCO3)c2c1 [Compound 127, (S)-2-((4-(6-(6-chloro-8-fluoro-3,4-dihydroisoquinolin-2(1H)-yl)pyridin-2-yl)piperazin-1-yl)methyl)-1-(oxetan-2-ylmethyl)-1H-benzo[d]imidazole-6-carboxylic acid] | –
13 | – | CCn1cncc1Cn1c(CN2CCC(c3cccc(OCc4nc5c(F)cc(C#N)cc5s4)n3)CC2)nc2ccc(C(=O)O)cc21 [Compound 164, 2-((4-(6-((6-cyano-4-fluorobenzo[d]thiazol-2-yl)methoxy)pyridin-2-yl)piperidin-1-yl)methyl)-1-((1-ethyl-1H-imidazol-5-yl)methyl)-1H-benzo[d]imidazole-6-carboxylic acid] | 0.0254
14 | 229 | C[C@@H]1c2ccc(C#N)cc2CCN1c1cccc(N2CCN(Cc3nc4ccc(C(=O)O)cc4n3C[C@@H]3CCO3)CC2)n1 [Compound 83] | –
15 | 0.174 | O=C(O)c1ccc2nc(CN3CC[C@@]4(c5cccc(OCc6ccc(Cl)cc6Cl)n5)C[C@H]4C3)n(C[C@@H]3CCO3)c2c1 (single isomer, unassigned) [Compound 126-P1] | –
16 | 0.311 | N#Cc1ccc(COc2cccc(N3CCC(Cc4nc5ccc(C(=O)O)cc5n4C[C@@H]4CCO4)CC3)n2)c(F)c1 [Compound 15, (S)-2-((1-(6-((4-cyano-2-fluorobenzyl)oxy)pyridin-2-yl)piperidin-4-yl)methyl)-1-(oxetan-2-ylmethyl)-1H-benzo[d]imidazole-6-carboxylic acid] | –
17 | 228 | NC(=O)c1ccc2c(c1)CCN(c1cccc(N3CCN(Cc4nc5ccc(C(=O)O)cc5n4C[C@@H]4CCO4)CC3)n1)C2 [Compound 59, (S)-2-((4-(6-(6-carbamoyl-3,4-dihydroisoquinolin-2(1H)-yl)pyridin-2-yl)piperazin-1-yl)methyl)-1-(oxetan-2-ylmethyl)-1H-benzo[d]imidazole-6-carboxylic acid] | –
18 | 0.394 | O=C(O)c1ccc2nc(CN3CCN(c4cccc(OCc5nc6ccccc6s5)n4)CC3)n(C[C@@H]3CCO3)c2c1 [Compound 69, (S)-2-((4-(6-(benzo[d]thiazol-2-ylmethoxy)pyridin-2-yl)piperazin-1-yl)methyl)-1-(oxetan-2-ylmethyl)-1H-benzo[d]imidazole-6-carboxylic acid] | –
19 | 1.07 | O=C(O)c1ccc2nc(CN3CCN(c4cccc(OCc5nc6cccc(F)c6s5)n4)CC3)n(C[C@@H]3CCO3)c2c1 [Compound 123, (S)-2-((4-(6-((7-fluorobenzo[d]thiazol-2-yl)methoxy)pyridin-2-yl)piperazin-1-yl)methyl)-1-(oxetan-2-ylmethyl)-1H-benzo[d]imidazole-6-carboxylic acid] | –
20 | 43.5 | N#Cc1cccc2c1CCN(c1cccc(N3CCN(Cc4nc5ccc(C(=O)O)cc5n4C[C@@H]4CCO4)CC3)n1)C2 [Compound 120, (S)-2-((4-(6-(5-cyano-3,4-dihydroisoquinolin-2(1H)-yl)pyridin-2-yl)piperazin-1-yl)methyl)-1-(oxetan-2-ylmethyl)-1H-benzo[d]imidazole-6-carboxylic acid] | –
21 | > 500 | N#CC1(COc2cccc(N3CCN(Cc4nc5ccc(C(=O)O)cc5n4C[C@@H]4CCO4)CC3)n2)CCOCC1 [Compound 41, (S)-2-((4-(6-((4-cyanotetrahydro-2H-pyran-4-yl)methoxy)pyridin-2-yl)piperazin-1-yl)methyl)-1-(oxetan-2-ylmethyl)-1H-benzo[d]imidazole-6-carboxylic acid] | –
22 | 3.65 | N#Cc1cccc2c1CN(c1cccc(N3CCN(Cc4nc5ccc(C(=O)O)cc5n4C[C@@H]4CCO4)CC3)n1)CC2 [Compound 109, (S)-2-((4-(6-(8-cyano-3,4-dihydroisoquinolin-2(1H)-yl)pyridin-2-yl)piperazin-1-yl)methyl)-1-(oxetan-2-ylmethyl)-1H-benzo[d]imidazole-6-carboxylic acid] | –
23 | 4.6 | Cn1cnc2ccc(COc3cccc(N4CCN(Cc5nc6ccc(C(=O)O)cc6n5C[C@@H]5CCO5)CC4)n3)cc21 [Compound 72, (S)-2-((4-(6-((1-methyl-1H-benzo[d]imidazol-6-yl)methoxy)pyridin-2-yl)piperazin-1-yl)methyl)-1-(oxetan-2-ylmethyl)-1H-benzo[d]imidazole-6-carboxylic acid] | –
24 | 141 | N#Cc1ccc2c(c1)CCCN(c1cccc(N3CCN(Cc4nc5ccc(C(=O)O)cc5n4C[C@@H]4CCO4)CC3)n1)C2 [Compound 74, (S)-2-((4-(6-(7-cyano-1,3,4,5-tetrahydro-2H-benzo[c]azepin-2-yl)pyridin-2-yl)piperazin-1-yl)methyl)-1-(oxetan-2-ylmethyl)-1H-benzo[d]imidazole-6-carboxylic acid] | –

Row | SMILES | EC50 (Table 2) [nM] | EC50 (Table 3) [nM]
25 | O=C(O)c1ccc2nc(CN3CC[C@]4(c5cccc(OCc6nc7ccccc7s6)n5)C[C@@H]4C3)n(C[C@@H]3CCO3)c2c1 (single isomer, unassigned) [Compound 104-P2] | 8.12 | –
